Test results as given in paper PMC6021681, “Characterization of the Anti-Hepatitis C Virus Activity of New Nonpeptidic Small-Molecule Cyclophilin Inhibitors with the Potential for Broad Anti-Flaviviridae Activity” (Antimicrobial Agents and Chemotherapy, 2018).
Like-named read-outs stand apart in the source and are kept apart here.

Experiments:
[1] = tested on: HCV genotype 1b bicistronic replicon (I389-Neo/NS3-3'/5.1); experiment: genotype 1b HCV-SGR replicon model, stable Huh7.5 cells, RT-qPCR; type: cell-based, hepatitis C virus; settings: 3 days
Method: of at least two independent measurements.
The cells were treated for
without G418. […] HCV‐SGR RNA
results were normalized to GAPDH.
replicates in cell culture.
antiviral activities. Nat Commun 7:12777.

CypA PPIase activity = CypA PPIase activity (Homo sapiens, UniProt P62937); experiment: CypA PPIase enzyme assay, chymotrypsin coupled; settings: read-out: PPIase inhibition IC50, 20°C
Chain of CypA PPIase activity (P62937 whole entry): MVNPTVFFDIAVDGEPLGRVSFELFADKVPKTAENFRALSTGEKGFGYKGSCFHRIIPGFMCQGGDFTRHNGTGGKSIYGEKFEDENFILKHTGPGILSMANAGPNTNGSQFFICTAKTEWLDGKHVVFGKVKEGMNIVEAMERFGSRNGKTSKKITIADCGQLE

genotype 1a HCV-SGR = experiment: microbe, parasite or virus in culture; type: cell-based, hepatitis C virus
[2] = tested on: genotype 1b HCV-SGR(L31V/Y93H); experiment: microbe, parasite or virus in culture; type: cell-based, hepatitis C virus
genotype 1b HCV-SGR = experiment: microbe, parasite or virus in culture; type: cell-based, hepatitis C virus
Method: (§1) Candidate resistance-associated substitutions (RASs) were introduced into a wild-type genotype 1b HCV-SGR containing the luciferase reporter gene by means of site-directed mutagenesis (QuikChange II XL site-directed mutagenesis kit; Agilent Technologies, Santa Clara, CA, USA). Ninety-six hours after RNA transfection, the susceptibility of the RAS-containing HCV-SGR to compound 31 was determined by measurement of luciferase activity and comparison to wild-type HCV-SGR susceptibility. The replication capacity of the RAS-containing HCV-SGR was assessed by comparing luciferase activities at 4 h and 96 h posttransfection and expressed as a percentage of the wild-type replication capacity.

genotype 3a HCV-SGR = experiment: genotype 3a HCV-SGR, stable Huh7.5 cells, luciferase; type: cell-based, hepatitis C virus; settings: 48 h, read-out: Mean EC50 ± SD, HCV-SGR Genotype 3a
genotype 5a HCV-SGR = experiment: genotype 5a HCV-SGR, stable Huh7.5 cells, luciferase; type: cell-based, hepatitis C virus; settings: 48 h, read-out: Mean EC50 ± SD, HCV-SGR Genotype 5a
[3] = tested on: Infectious J6/JFH1 HCV genotype 2a/2a; experiment: infectious HCV model, luciferase; type: cell-based, hepatitis C virus; settings: read-out: Mean EC50 ± SD, Infectious J6/JFH1 HCV genotype 2a/2a
CypA = target: T1, CypA (Homo sapiens, UniProt P62937); experiment: TR-FRET competitive binding assay against labeled CsA
T1 construct: purchased Selcia, Ongar, UK
T1 sequence (P62937 whole entry): as above

CypA-NS5A interaction = CypA-NS5A interaction (Homo sapiens, UniProt P62937); type: binding
Chain of CypA-NS5A interaction (P62937 whole entry): as above

[4] = tested on: genotype 1b HCV-SGR D320E; experiment: microbe, parasite or virus in culture; type: cell-based, hepatitis C virus; settings: for EC50: 96 h, read-out: Mean EC50 ± SD, D320E
Method: as §1, with “Ninety-six hours after RNA transfection, the susceptibility of the RAS-containing HCV-SGR to compound 31 was determined by measurement of luciferase activity and comparison to wild-type HCV-SGR susceptibility.” left out

[5] = tested on: genotype 1b HCV-SGR E442G; experiment: microbe, parasite or virus in culture; type: cell-based, hepatitis C virus; settings: for EC50: 96 h, read-out: Mean EC50 ± SD, E442G
Method: as §1, with “Ninety-six hours after RNA transfection, the susceptibility of the RAS-containing HCV-SGR to compound 31 was determined by measurement of luciferase activity and comparison to wild-type HCV-SGR susceptibility.” left out

[6] = tested on: genotype 1b HCV-SGR I133V; experiment: microbe, parasite or virus in culture; type: cell-based, hepatitis C virus; settings: for EC50: 96 h, read-out: Mean EC50 ± SD, I133V
Method: as §1, with “Ninety-six hours after RNA transfection, the susceptibility of the RAS-containing HCV-SGR to compound 31 was determined by measurement of luciferase activity and comparison to wild-type HCV-SGR susceptibility.” left out

[7] = tested on: genotype 1b HCV-SGR K308I; experiment: microbe, parasite or virus in culture; type: cell-based, hepatitis C virus; settings: for EC50: 96 h, read-out: Mean EC50 ± SD, K308I
Method: as §1, with “Ninety-six hours after RNA transfection, the susceptibility of the RAS-containing HCV-SGR to compound 31 was determined by measurement of luciferase activity and comparison to wild-type HCV-SGR susceptibility.” left out

[8] = tested on: genotype 1b HCV-SGR L303P; experiment: microbe, parasite or virus in culture; type: cell-based, hepatitis C virus; settings: for EC50: 96 h, read-out: Mean EC50 ± SD, L303P
Method: as §1, with “Ninety-six hours after RNA transfection, the susceptibility of the RAS-containing HCV-SGR to compound 31 was determined by measurement of luciferase activity and comparison to wild-type HCV-SGR susceptibility.” left out

[9] = tested on: genotype 1b HCV-SGR R304W; experiment: microbe, parasite or virus in culture; type: cell-based, hepatitis C virus; settings: for EC50: 96 h, read-out: Mean EC50 ± SD, R304W
Method: as §1, with “Ninety-six hours after RNA transfection, the susceptibility of the RAS-containing HCV-SGR to compound 31 was determined by measurement of luciferase activity and comparison to wild-type HCV-SGR susceptibility.” left out

[10] = tested on: genotype 1b HCV-SGR Y321H; experiment: microbe, parasite or virus in culture; type: cell-based, hepatitis C virus; settings: for EC50: 96 h, read-out: Mean EC50 ± SD, Y321H
Method: as §1, with “Ninety-six hours after RNA transfection, the susceptibility of the RAS-containing HCV-SGR to compound 31 was determined by measurement of luciferase activity and comparison to wild-type HCV-SGR susceptibility.” left out

ZIKV strain MR766 = experiment: ZIKV replication in Huh7 cells, RT-qPCR; type: cell-based, Zika virus
genotype 2a HCV-SGR = experiment: genotype 2a HCV-SGR, transient, luciferase; settings: read-out: Mean EC50 ± SD, HCV-SGR Genotype 2a
[11] = tested on: chimeric genotype 2a/4a HCV-SGR; experiment: chimeric genotype 2a/4a HCV-SGR, transient, luciferase; settings: read-out: Mean EC50 ± SD, HCV-SGR Genotype 2a/4a
[12] = tested on: full-length infectious HCV genotype 3a (DBN-3acc); experiment: full-length DBN-3acc replication, RT-qPCR; type: cell-based, hepatitis C virus; settings: at 10 μM, Huh7.5 cells, 120 hours
Text: Madison, Wisconsin, USA).
(Promega) and quantified by RT‐qPCR.
(1 mi n ). […] The percent inhibition of […]

Huh7.5 cells = experiment: cytotoxicity MTT assay; type: cell-based, Human; settings: at its effective concentration, 3 days
[13] = target: CypA-NS5A-D320E interaction (Homo sapiens, UniProt P62937); type: binding; settings: NS5A-D320E-Rluc, CypA-6His on Ni-NTA beads
Chain of CypA-NS5A-D320E interaction (P62937 whole entry, stated change not applied): as the sequence (P62937 whole entry) above

[14] = tested on: DENV-4 strain Dominica 814669; experiment: DENV replication in Huh7 cells, RT-qPCR; type: cell-based, dengue virus; settings: RT-qPCR at 48 h postinfection
YFV strain Dakar HD 1279 = type: cell-based, yellow fever virus; settings: Huh7 cells, RT-qPCR at 48 h postinfection; read-out: EC50, YFV replication
WNV = WNV replication; type: cell-based, West Nile virus; settings: 50 μM the highest concentration tested, data not shown
JEV = JEV replication; type: cell-based, Japanese encephalitis virus; settings: data not shown
Huh7 cells = settings: read-out: 50% cytotoxic concentration (CC50); flavivirus experiments

Nc1ccc(CNC(=O)NCC(=O)N2CCCC2c2cccc3ccccc23)cc1 (centres unmarked) [Compound C32]
EC50 [1]: 9010 ± 2040 nM
IC50 (CypA PPIase activity): 1490 ± 450 nM

Nc1ccc(CNC(=O)NCC(=O)N2CCCC2c2ccccc2Br)cc1 (centres unmarked) [Compound C35]
EC50 [1]: 4510 ± 520 nM

COc1ccccc1C1CCCN1C(=O)CNC(=O)NCc1ccc(N)cc1 (centres unmarked) [Compound C36]
EC50 [1]: 19700 ± 2900 nM
IC50 (CypA PPIase activity): 5030 ± 1810 nM

COC(=O)N[C@H](C(=O)N1CC2(CC2)C[C@H]1c1nc(-c2ccc3c(c2)C(F)(F)c2cc(-c4ccc5[nH]c([C@@H]6[C@H]7CC[C@H](C7)N6C(=O)[C@@H](NC(=O)OC)C(C)C)nc5c4)ccc2-3)c[nH]1)C(C)C [LDV, ledipasvir]
EC50 (genotype 1a HCV-SGR; Hepatitis C virus, Huh7.5, read-out: EC50 used in the combination study, genotype 1a HCV-SGR): 0.01 nM
increase in the LDV EC50, L31V and Y93H substitutions ([2]; genotype 1b HCV-SGR, versus wild type, data not shown): 714 fold

C/C=C/C[C@@H](C)[C@@H](O)[C@H]1C(=O)N[C@@H](CC)C(=O)N(C)[C@H](C)C(=O)N(CC)[C@@H](C(C)C)C(=O)N[C@@H](C(C)C)C(=O)N(C)[C@@H](CC(C)C)C(=O)N[C@@H](C)C(=O)N[C@H](C)C(=O)N(C)[C@@H](CC(C)C)C(=O)N(C)[C@@H](CC(C)C)C(=O)N(C)[C@@H](C(C)C)C(=O)N1C [ALV, Alisporivir, reference compound]
EC50 (genotype 1a HCV-SGR; Hepatitis C virus, stable Huh7.5 cells, 48 h, luciferase, read-out: Mean EC50 ± SD, HCV-SGR Genotype 1a): 40 ± 30 nM
EC50 (genotype 1b HCV-SGR; Hepatitis C virus, transient, Huh7.5 cells, 96 h posttransfection, luciferase, read-out: Mean EC50 ± SD, HCV-SGR Genotype 1b): 30 ± 10 nM
EC50 (genotype 1b HCV-SGR; Hepatitis C virus, wild-type genotype 1b HCV-SGR, read-out: Mean EC50 ± SD, WT): 30 ± 10 nM
EC50 (genotype 3a HCV-SGR; Hepatitis C virus): 20 ± 10 nM
EC50 (genotype 5a HCV-SGR; Hepatitis C virus): 10 ± 10 nM
EC50 ([3]; Hepatitis C virus, Huh7.5, 72 h): 30 ± 2 nM
Kd (CypA; purified CypA): < 5 nM
disruption of the CypA-NS5A interaction (CypA-NS5A interaction): disrupted
EC50 ([4]; Hepatitis C virus): 120 ± 50 nM
EC50 ([5]; Hepatitis C virus): 30 ± 4 nM
EC50 ([6]; Hepatitis C virus): 20 ± 1 nM
EC50 ([7]; Hepatitis C virus): 40 ± 4 nM
EC50 ([8]; Hepatitis C virus): 40 ± 10 nM
EC50 ([9]; Hepatitis C virus): 30 ± 4 nM
EC50 ([10]; Hepatitis C virus): 60 ± 20 nM
EC50 ([2]; Hepatitis C virus, 84 h, read-out: Mean EC50 ± SD, L31V/Y93H): 10 ± 1 nM
inhibition of ZIKV replication (ZIKV strain MR766; data not shown): did not inhibit
EC50 (genotype 2a HCV-SGR; Hepatitis C virus, GETYPE2A, Huh7.5, 48 h): 20 ± 10 nM
EC50 ([11]; Hepatitis C virus, GETYPE2A, Huh7.5, 72 h): 10 ± 2 nM

CSc1ccccc1C1CCCN1C(=O)C(NC(=O)NCc1ccc(N)cc1)c1ccccc1 (centres unmarked) [Compound C31]
EC50 (genotype 1a HCV-SGR; stable Huh7.5 cells, 48 h, luciferase, read-out: Mean EC50 ± SD, HCV-SGR Genotype 1a): 3800 ± 1900 nM
Fold change, WT (genotype 1b HCV-SGR; EC50 relative to wild type): 1.0
EC50 (genotype 1b HCV-SGR; transient, Huh7.5 cells, 96 h posttransfection, luciferase, read-out: Mean EC50 ± SD, HCV-SGR Genotype 1b): 2950 ± 600 nM
EC50 (genotype 1b HCV-SGR; wild-type genotype 1b HCV-SGR, read-out: Mean EC50 ± SD, WT): 2950 ± 600 nM
EC50 (genotype 3a HCV-SGR): 7760 ± 1570 nM
EC50 (genotype 5a HCV-SGR): 1200 ± 830 nM
EC50 ([3]; Huh7.5 cells, 72 h, luciferase): 2800 ± 400 nM
maximal HCV RNA reduction, DBN-3acc RNA replication [12]: 244 fold
cell viability (Huh7.5 cells): did not affect
Kd (CypA; read-out: Kd, displacement of labeled CsA from CypA, purified CypA): 105 nM
disruption of the CypA-NS5A interaction (CypA-NS5A interaction; WT-NS5A-Rluc, CypA-6His on Ni-NTA beads): disrupted
disruption of the NS5A-D320E interaction with CypA [13]: fully sensitive
Fold change, D320E ([4]; EC50 relative to wild type): 3.0
EC50 ([4]; genotype 1b HCV-SGR): 8730 ± 1100 nM
Fold change, E442G ([5]; EC50 relative to wild type): 1.0
EC50 ([5]; genotype 1b HCV-SGR): 2990 ± 700 nM
Fold change, I133V ([6]; EC50 relative to wild type): 0.9
EC50 ([6]; genotype 1b HCV-SGR): 2750 ± 200 nM
Fold change, K308I ([7]; EC50 relative to wild type): 0.9
EC50 ([7]; genotype 1b HCV-SGR): 2590 ± 200 nM
Fold change, L303P ([8]; EC50 relative to wild type): 1.0
EC50 ([8]; genotype 1b HCV-SGR): 3050 ± 400 nM
Fold change, R304W ([9]; EC50 relative to wild type): 0.8
EC50 ([9]; genotype 1b HCV-SGR): 2470 ± 200 nM
Fold change, Y321H ([10]; EC50 relative to wild type): 1.8
EC50 ([10]; genotype 1b HCV-SGR): 5410 ± 400 nM
EC50 [14]: 7300 ± 3500 nM
EC50 (YFV strain Dakar HD 1279): 27200 ± 4700 nM
EC50 (ZIKV strain MR766; Huh7 cells, RT-qPCR at 48 h postinfection): 48000 ± 5600 nM
EC50 (WNV): > 50000 nM
effect against JEV replication (JEV): no effect
EC50 [1]: 400 ± 10 nM
CC50 (Huh7 cells): ≥ 100000 nM
EC50 (genotype 2a HCV-SGR; transient, Huh7.5 cells, 48 h posttransfection, luciferase): 2300 ± 1200 nM
IC50 (CypA PPIase activity): 100 ± 10 nM
EC50 ([11]; transient, Huh7.5 cells, 72 h posttransfection, luciferase): 1400 ± 1100 nM

CSCCC(NC(=O)NCc1ccc(N)cc1)C(=O)N1CCCC1c1ccccc1SC (centres unmarked) [Compound C34]
EC50 [1]: 1630 ± 380 nM

CSc1ccccc1C1CCCN1C(=O)C(C)NC(=O)NCc1ccc(N)cc1 (centres unmarked) [Compound C33, 1‐[(4‐aminophenyl)methyl]‐3‐(1‐{2‐[2‐(methylsylfanyl)phenyl]pyrrolidin‐1‐yl}‐1‐oxopropan‐2‐yl)urea]
EC50 [1]: 12900 ± 1200 nM
IC50 (CypA PPIase activity): 3080 ± 1170 nM
